Test system: healthy, LRRK2, and sporadic PD cells
Assay: Relative distance between treated cell groups and 0.16% DMSO control (morphological profiles)
Type: cell-based, human
Settings: vs 0.16% DMSO; tile embeddings, single cell embeddings and feature vector models; three increasing doses; FIGS. 13A-13C
Experimental: In this example, the same automated platform as described above in Examples 1 and 2 was implemented to morphologically profile large collections of cells that were treated using any of a number of perturbations. Example perturbations include bafilomycin, carbonyl cyanide m-chlorophenyl hydrazone (CCCP), MG312, rotenone, valinomycin as well as control groups (untreated and 0.16% DMSO). Specifically, healthy or PD cells of known subtype (e.g., LRKK2 subtype or sporadic subtype) were cultured in vitro and treated with varying doses of the perturbations. For example, for bafilomycin, treatments included 15.63 nM, 31.25 nM, and 62.5 nM bafilomycin. For CCCP, the treatments included 390.5 nM, 781 nM, and 1562 nM. For MG312, the treatments included 234.38 nM, 468.75 nM, and 937.5 nM. For rotenone, the treatments included 7.81 nM, 15.63 nM, and 31.25 nM. For valinomycin, the treatments included 3.91 nM, 7.81 nM, and 15.63 nM.
Following in vitro treatment of healthy cells and PD subtype cells using the aforementioned concentrations of perturbagens, the cells were imaged using the automated imaging platform and subsequently analyzed using predictive models. In particular, three predictive models were implemented: 1) predictive model including tile embeddings, 2) predictive model including single cell embeddings, and 3) predictive model including extracted features (e.g., CellProfiler features). […]

CO/C1=C\C(C)=C\[C@@H](C)[C@@H](O)[C@@H](C)C/C(C)=C/C=C/[C@H](OC)[C@@H]([C@@H](C)[C@@H](O)[C@H](C)[C@@]2(O)C[C@@H](O)[C@H](C)[C@@H](C(C)C)O2)OC1=O [Bafilomycin, bafilomycin]
relative distance between treated cell groups in comparison to controls: increase in distance in response to increasing dose
